In patent US11879012B2, “Method of modulating cell proliferation” (METRO NORTH HOSPITAL AND HEALTH SERVICE, priority 2018, dated 2024):

What was measured:
[1] = tested on: microvascular endothelial cells (MEC); experiment: MTT assay, metabolic response of microvascular endothelial cells; type: cell-based
Method: (§1) Measurement of mitochondrial enzyme activity by MTT conversion was utilised as an indirect assessment of metabolic and proliferative activity. MTT reagent was prepared by diluting the MTT stock solution (5 mg/mL) 1:10 in PBS (i.e., to a final concentration of 0.5 mg/mL MTT). Prior optimization of growth conditions (seeding density and duration in culture) was conducted to ensure sub-confluency at the time of measurement. For example, a seeding density of 10,000 cells per cm^2 and a culture period of 48-hours were routinely used. On the day of analysis, the culture medium was removed from each well and replaced with a fixed volume (0.5 mL per well of a 24 well plate) of MTT solution and incubated at 37° C. for 40 minutes. The MTT reagent was subsequently removed and the formazan product eluted by adding a fixed volume (300 μL per well of a 24 well plate) of acidified isopropanol (24.6 μL of concentrated HCL in 20 mL of isopropanol) to each well for approximately 5 minutes, 150 μL of the eluted stain from each well was then transferred into corresponding wells of a 96 well plate. The optical density was measured using a plate reader at 550 nm (background 620 nm). Microvascular endothelial cells (MEC) were cultured in MEC Culture Medium comprising 500 mL of MCDB-131 media containing 5 mL of 1M L-Glutamine, 5 Penicillin (10,000 IU/mL)/Streptomycin (10,000 ug/mL), 10% v/v foetal calf serum (FCS), 0.5 mL of 1 mg/mL hydrocortisone (Hc) and 0.5 mL of 10 ug/mL epidermal growth factor (EGF). Spent culture media was removed and the flask rinsed with 5 mL of phosphate buffered saline (without magnesium or calcium; PBSA). After 30 seconds, the PBSA was removed and 5 mL of 0.02% EDTA/0.05% trypsin reagent was added to the cells. The flask was then incubated at 37° C. for 5-8 minutes. The cells were then dislodged from the flask, removed and added to a 50 mL centrifuge tube containing an equal volume of culture media to neutralize the 0.02% EDTA/0.05% trypsin reagent. This tube was then centrifuged at 100 g for 5 minutes to form a pellet of cells. The supernatant was removed and the pellet of cells resuspended. The diluted cells were split 1:3 into new flasks containing culture media. The flasks were then placed in a humidified CO2 (5%) incubator at 37° C. until the cells were approximately 80% confluent. The process was repeated weekly. For the purpose of serum-free culturing, the MEC and LEC cells were serum starved by incubating them in serum-free MCDB-131 medium (Gibco/Life Technologies) for 12 hours. Limbal epithelial cells (LEC) were cultured in a similar manner to MEC in LEC Culture Medium comprising 500 mL of DMEM/F12 media containing 5 mL of 1M L-Glutamine, 5 mL of Pen (10,000 IU/mL)/Strep (10,000 ug/mL) and 10% FCS (v/v). Additional reagents used in these experiments are described below: • 0.02% EDTA/0.05% trypsin reagent: 5 mL of 2% EDTA solution and 10 mL of thawed 2.5% trypsin solution were added to 485 mL of PBSA, 50 mL aliquots were dispensed into 50 mL centrifuge tubes and stored below −20° C. • Pre-bound Collagen IV: 250 μL of Collagen IV stock solution was added to the wells of a 24 well tissue culture plate and allowed to dry completely over night in a biohazard cabinet. • Pre-bound Vitronectin: a vitronectin stock solution (2 mg/mL) was diluted in water to a final concentration of 5 μg/mL. […]

[2] = tested on: limbal epithelial cells (LEC); experiment: MTT assay, metabolic response of limbal epithelial cells; type: cell-based; conditions: FIG. 8
Method: as §1, with “nm).” for “nm). Microvascular endothelial cells (MEC) were cultured in MEC Culture Medium comprising 500 mL of MCDB-131 media containing 5 mL of 1M L-Glutamine, 5 Penicillin (10,000 IU/mL)/Streptomycin (10,000 ug/mL), 10% v/v foetal calf serum (FCS), 0.5 mL of 1 mg/mL hydrocortisone (Hc) and 0.5 mL of 10 ug/mL epidermal growth factor (EGF).”, “(v/v).” for “(v/v). Additional reagents used in these experiments are described below: • 0.02% EDTA/0.05% trypsin reagent: 5 mL of 2% EDTA solution and 10 mL of thawed 2.5% trypsin solution were added to 485 mL of PBSA, 50 mL aliquots were dispensed into 50 mL centrifuge tubes and stored below −20° C. • Pre-bound Collagen IV: 250 μL of Collagen IV stock solution was added to the wells of a 24 well tissue culture plate and allowed to dry completely over night in a biohazard cabinet. • Pre-bound Vitronectin: a vitronectin stock solution (2 mg/mL) was diluted in water to a final concentration of 5 μg/mL.”

[3] = agent alone, serum-starved cells, 2 days, glucose 10 mg/mL, thrombin 100 IU/mL, FIG. 7
[4] = agent alone, serum-starved cells, 2 days, glucose 10 mg/mL, thrombin 100 IU/mL

How did the “proliferation of MEC” value ([1]; ATIII 10 IU/mL in the presence of thrombin (+glucose) and pre-bound PSGL-1, FIG. 9) turn out when anti-thrombin III was run?
Its value is “stimulated the proliferation of MEC”.

With thrombin as the molecule, how does the “proliferation of MEC” value ([1]; 100 IU/mL thrombin with glucose, FIG. 7) read?
The value was “stimulated proliferation of MEC in synergy with glucose, exceeding the positive control”.

And the “proliferation of MEC” value [1, 3]?
Its value is “did not significantly stimulate proliferation of endothelium”.

What about the “proliferation of LEC” value [2, 4] of the same molecule?
The value was “did not significantly stimulate proliferation”.

What about the “proliferation of LEC” value ([2]; glucose with thrombin) of the same molecule?
Its value is “did not significantly stimulate proliferation”.

B1: P-selectin: pre-bound recombinant human P-selectin (protein, UniProt P16109 42-830, looked up)
P-selectin: WTYHYSTKAYSWNISRKYCQNRYTDLVAIQNKNEIDYLNKVLPYYSSYYWIGIRKNNKTWTWVGTKKALTNEAENWADNEPNNKRNNEDCVEIYIKSPSAPGKWNDEHCLKKKHALCYTASCQDMSCSKQGECLETIGNYTCSCYPGFYGPECEYVRECGELELPQHVLMNCSHPLGNFSFNSQCSFHCTDGYQVNGPSKLECLASGIWTNKPPQCLAAQCPPLKIPERGNMTCLHSAKAFQHQSSCSFSCEEGFALVGPEVVQCTASGVWTAPAPVCKAVQCQHLEAPSEGTMDCVHPLTAFAYGSSCKFECQPGYRVRGLDMLRCIDSGHWSAPLPTCEAISCEPLESPVHGSMDCSPSLRAFQYDTNCSFRCAEGFMLRGADIVRCDNLGQWTAPAPVCQALQCQDLPVPNEARVNCSHPFGAFRYQSVCSFTCNEGLLLVGASVLQCLATGNWNSVPPECQAIPCTPLLSPQNGTMTCVQPLGSSSYKSTCQFICDEGYSLSGPERLDCTRSGRWTDSPPMCEAIKCPELFAPEQGSLDCSDTRGEFNVGSTCHFSCDNGFKLEGPNNVECTTSGRWSATPPTCKGIASLPTPGVQCPALTTPGQGTMYCRHHPGTFGFNTTCYFGCNAGFTLIGDSTLSCRPSGQWTAVTPACRAVKCSELHVNKPIAMNCSNLWGNFSYGSICSFHCLEGQLLNGSAQTACQENGHWSTTVPTCQAGPLTIQEALTYFGGAVASTIGLIMGGTLLALLRKRFRQKDDGKCPLNPHSHLGTYGVFTNAAFDPSP
With B1 as the molecule, how does the “thrombin-induced proliferation of MEC” value ([1]; pre-bound, in the presence of glucose, absence of collagen IV and vitronectin, FIG. 7) read?
Its value is “reduced the thrombin-induced proliferation of MEC”.

B2: vitronectin: pre-bound basement membrane protein (protein, UniProt P04004 20-478, looked up)
Vitronectin: DQESCKGRCTEGFNVDKKCQCDELCSYYQSCCTDYTAECKPQVTRGDVFTMPEDEYTVYDDGEEKNNATVHEQVGGPSLTSDLQAQSKGNPEQTPVLKPEEEAPAPEVGASKPEGIDSRPETLHPGRPQPPAEEELCSGKPFDAFTDLKNGSLFAFRGQYCYELDEKAVRPGYPKLIRDVWGIEGPIDAAFTRINCQGKTYLFKGSQYWRFEDGVLDPDYPRNISDGFDGIPDNVDAALALPAHSYSGRERVYFFKGKQYWEYQFQHQPSQEECEGSSLSAVFEHFAMMQRDSWEDIFELLFWGRTSAGTRQPQFISRDWHGVPGQVDAAMAGRIYISGMAPRPSLAKKQRFRHRNRKGYRSQRGHSRGRNQNSRRPSRATWLSLFSSEESNLGANNYDDYRMDWLVPATCEPIQSVFFFSGDKYYRVNLRTRRVDTVDPPYPRSIAQYWLGCPAPGHL
B2 was tested. Which “proliferation of MEC” value [1, 3] did it give?
The value was “did not significantly stimulate proliferation of endothelium”.

And the “proliferation of LEC” value [2, 4]?
The value was “did not significantly stimulate proliferation”.

B3: PSGL-1: pre-bound selectin receptor, P-selectin glycoprotein ligand-1 (protein, UniProt Q14242 42-412, looked up)
P-selectin glycoprotein …: QATEYEYLDYDFLPETEPPEMLRNSTDTTPLTGPGTPESTTVEPAARRSTGLDAGGAVTELTTELANMGNLSTDSAAMEIQTTQPAATEAQTTQPVPTEAQTTPLAATEAQTTRLTATEAQTTPLAATEAQTTPPAATEAQTTQPTGLEAQTTAPAAMEAQTTAPAAMEAQTTPPAAMEAQTTQTTAMEAQTTAPEATEAQTTQPTATEAQTTPLAAMEALSTEPSATEALSMEPTTKRGLFIPFSVSSVTHKGIPMAASNLSVNYPVGAPDHISVKQCLLAILILALVATIFFVCTVVLAVRLSRKGHMYPVRNYSPTEMVCISSLLPDGGEGPSATANGGLSKAKSPGLTPEPREDREGDDLTLHSFLP
With B3 as the molecule, how does the “thrombin induced proliferation of LEC” value ([2]; pre-bound, in the presence of glucose) read?
Its value is “stimulated thrombin induced proliferation of LEC”.
